This passage reports IC50 results from patent US20240246908A1 (ORION CORPORATION, priority 2021, published 2024).

Where only a bound is given, the exact number is not on record here.

The IC50 is the concentration that inhibits the measured activity by half.

For the assay, the system named is YAP-TEAD. The experiment in a line: TEAD inhibition, Hippo Pathway TEAD Reporter MCF-7 luciferase assay. It is filed as cell-based. The conditions noted are these: Homo sapiens, MCF7, 24 h, Hippo Pathway TEAD Reporter MCF-7 cells, luciferase activity after 24 h; read-out: IC50 of the test compounds on YAP-TEAD inhibition (Group). The method, then: TEAD inhibition was assayed using Hippo Pathway TEAD Reporter—MCF-7 cell line (BPS Bioscience, Catalog #: 60618) which contains firefly luciferase gene under the control of TEAD responsive elements. In the cell line, YAP1 remains in the nucleus inducing constitutive expression of luciferase reporter. Amount of expressed luciferase was detected using ONE-Glo Luciferase Assay System (Promega) and measuring plates with Enspire Multimode Plate Reader (PerkinElmer).
Hippo Pathway TEAD Reporter—MCF-7 cells were plated on white/clear Poly-D-Lysine coated 384 plates (Corning #356660) at the density of 8500 cells/well. Next day test compounds (11 concentrations with 4 replicates) and DMSO control (0.1%) were added to the plate. After 24 h cells were lysed and luciferase activity was measured. The half maximal inhibitory concentration (IC50) of the test compounds on YAP-TEAD inhibition was determined.
Regarding `CN1C(=O)CCC1C(=O)Nc1cc(Oc2cccc(C(F)(F)F)c2)cc2c1OCO2` (stereo not shown) [Compound 34, 1-Methyl-5-oxo-N-(6-(3-(trifluoromethyl)phenoxy)benzo[d][1,3]dioxol-4-yl)-pyrrolidine-2-carboxamide], the 50% inhibitory concentration (IC50) was in the range of 0.05 to 0.3 µM.

As for `COc1c(F)cc(COc2cccc(F)c2)cc1NC(=O)C1CCC(=O)N1C` (stereo not shown) [Compound 35, N-(3-Fluoro-5-((3-fluorophenoxy)methyl)-2-methoxyphenyl)-1-methyl-5-oxo-pyrrolidine-2-carboxamide], the IC50 was in the range of 0.301 to 2 µM.

Regarding `COc1c(F)cc(COc2cccc(F)c2)cc1NC(=O)C1CCC(=O)N1` (stereo not shown) [Compound 36, N-(3-Fluoro-5-((3-fluorophenoxy)methyl)-2-methoxyphenyl)-5-oxopyrrolidine-2-carboxamide], the IC50 lay within 0.05 to 0.3 µM.

In the case of `CCN1C(=O)CCC1C(=O)Nc1cc(Oc2cccc(C(F)(F)F)c2)ccc1OC` (stereo not shown) [Compound 37, 1-Ethyl-N-(2-methoxy-5-(3-(trifluoromethyl)phenoxy)phenyl)-5-oxopyrrolidine-2-carboxamide], the IC50 was in the range of 0.05 to 0.3 µM.

Consider `COc1ccc(Oc2cccc(C(F)(F)F)c2)cc1NC(=O)C1CCC(=O)N1C(=O)C1CC1` (stereo not shown) [Compound 38, 1-(Cyclopropanecarbonyl)-N-(2-methoxy-5-(3-(trifluoromethyl)phenoxy)-phenyl)-5-oxopyrrolidine-2-carboxamide], for which the IC50 was 0.301 to 2 µM.

Turning to `COc1cc(F)c(Oc2cccc(C(F)(F)F)c2)cc1NC(=O)C1CCC(=O)N1C(C)=O` (stereo not shown) [Compound 39, 1-Acetyl-N-(4-fluoro-2-methoxy-5-(3-(trifluoromethyl)phenoxy)phenyl)-5-oxopyrrolidine-2-carboxamide], the half-inhibitory concentration (IC50) lay in the range of 0.05 to 0.3 µM.

Consider `CC(=O)N1C(=O)CCC1C(=O)Nc1cc(Oc2cccc(C(F)(F)F)c2)ccc1F` (stereo not shown) [Compound 40, 1-Acetyl-N-(2-fluoro-5-(3-(trifluoromethyl)phenoxy)phenyl)-5-oxopyrrolidine-2-carboxamide], for which the IC50 fell in the range of 0.301 to 2 µM.

As for `CN1C(=O)CCC1C(=O)Nc1cc(Oc2cccc(C(F)(F)F)c2)ccc1F` (stereo not shown) [Compound 41, N-(2-Fluoro-5-(3-(trifluoromethyl)phenoxy)phenyl)-1-methyl-5-oxopyrrolidine-2-carboxamide], the IC50 is 0.301 to 2 µM.

Turning to `COc1ccc(Oc2ccc(F)cc2F)cc1NC(=O)C1CCC(=O)N1` (stereo not shown) [Compound 42, N-(5-(2,4-Difluorophenoxy)-2-methoxyphenyl)-5-oxopyrrolidine-2-carboxamide], the IC50 lay within 0.05 to 0.3 µM.

Regarding `COc1ccc(Oc2ccc(F)cc2F)cc1NC(=O)C1CCC(=O)N1C` (stereo not shown) [Compound 43, N-(5-(2,4-Difluorophenoxy)-2-methoxyphenyl)-1-methyl-5-oxopyrrolidine-2-carboxamide], the IC50 lay within 0.05 to 0.3 µM.

As for `COc1ccc(Oc2ccc(F)cc2F)cc1NC(=O)C1CCC(=O)N1C(C)=O` (stereo not shown) [Compound 44, 1-Acetyl-N-(5-(2,4-difluorophenoxy)-2-methoxyphenyl)-5-oxopyrrolidine-2-carboxamide], the IC50 lay within 0.301 to 2 µM.

With `COc1ccc(Oc2ccc(C(F)(F)F)cc2)cc1NC(=O)C1CCC(=O)N1C(C)=O` (stereo not shown) [Compound 47, 1-Acetyl-N-(2-methoxy-5-(4-(trifluoromethyl)phenoxy)phenyl)-5-oxo-pyrrolidine-2-carboxamide], the half-maximal inhibitory concentration (IC50) is under 0.05 µM.

For `COc1ccc(Oc2ccc(C(F)(F)F)cc2)cc1NC(=O)C1CCC(=O)N1C` (stereo not shown) [Compound 48, N-(2-Methoxy-5-(4-(trifluoromethyl)phenoxy)phenyl)-1-methyl-5-oxopyrrolidi-ne-2-carboxamide], the IC50 was under 0.05 µM.

Turning to `COc1ccc(COc2cccc(C(F)(F)F)c2)cc1NC(=O)C1CCC(=O)N1` (stereo not shown) [Compound 49, N-(2-Methoxy-5-((3-(trifluoromethyl)phenoxy)methyl)phenyl)-5-oxopyrrolidine-2-carboxamide], the IC50 fell in the range of 0.05 to 0.3 µM.

As to `COc1ccc(COc2cccc(C(F)(F)F)c2)cc1NC(=O)C1CCC(=O)N1C(C)=O` (stereo not shown) [Compound 50, 1-Acetyl-N-(2-methoxy-5-((3-(trifluoromethyl)phenoxy)methyl)phenyl)-5-oxopyrrolidine-2-carboxamide], the IC50 fell in the range of 0.301 to 2 µM.

As to `COc1ccc(OCc2cccc(C(F)(F)F)c2)cc1NC(=O)C1CCC(=O)N1C(C)=O` (stereo not shown) [Compound 51, 1-Acetyl-N-(2-methoxy-5-((3-(trifluoromethyl)benzyl)oxy)phenyl)-5-oxo-pyrrolidine-2-carboxamide], the IC50 lay within 0.301 to 2 µM.

As for `COc1ccc(OCc2cccc(C(F)(F)F)c2)cc1NC(=O)C1CCC(=O)N1` (stereo not shown) [Compound 52, N-(2-Methoxy-5-((3-(trifluoromethyl)benzyl)oxy)phenyl)-5-oxopyrrolidine-2-carboxamide], the half-maximal inhibitory concentration (IC50) is 0.05 to 0.3 µM.

`COc1ccc(OCc2cccc(C(F)(F)F)c2)cc1NC(=O)C1CCC(=O)N1C` (stereo not shown) [Compound 53, N-(2-Methoxy-5-((3-(trifluoromethyl)benzyl)oxy)phenyl)-1-methyl-5-oxo-pyrrolidine-2-carboxamide]: the IC50 is 0.05 to 0.3 µM.

With `O=C(Nc1cc(Oc2cccc(C(F)(F)F)c2)cc2c1OCCO2)C1CCS(=O)(=O)N1` (stereo not shown) [Compound 54, N-(7-(3-(Trifluoromethyl)phenoxy)-2,3-dihydrobenzo[b][1,4]dioxin-5-yl)-isothiazolidine-3-carboxamide 1,1-dioxide], the IC50 was 0.301 to 2 µM.

Regarding `O=C1CCC(C(=O)Nc2cc(Oc3cccc(C(F)(F)F)c3)cc3c2OCCO3)N1` (stereo not shown) [Compound 55, 5-Oxo-N-(7-(3-(trifluoromethyl)phenoxy)-2,3-dihydrobenzo[b][1,4]dioxin-5-yl)pyrrolidine-2-carboxamide], the IC50 was 0.05 to 0.3 µM.

With `CC(=O)N1C(=O)CCC1C(=O)Nc1cc(Oc2cccc(C(F)(F)F)c2)cc2c1OCCO2` (stereo not shown) [Compound 56, 1-Acetyl-5-oxo-N-(7-(3-(trifluoromethyl)phenoxy)-2,3-dihydrobenzo[b][1,4]-dioxin-5-yl)pyrrolidine-2-carboxamide], the IC50 fell in the range of 0.05 to 0.3 µM.

As for `O=C1CCC(C(=O)Nc2cc(COc3cccc(F)c3)cc3c2OCCO3)N1` (stereo not shown) [Compound 57, N-(7-((3-Fluorophenoxy)methyl)-2,3-dihydrobenzo[b][1,4]dioxin-5-yl)-5-oxopyrrolidine-2-carboxamide], the IC50 is 0.05 to 0.3 µM.

Take `CN1C(=O)CCC1C(=O)Nc1cc(COc2cccc(F)c2)cc2c1OCCO2` (stereo not shown) [Compound 58, N-(7-((3-Fluorophenoxy)methyl)-2,3-dihydrobenzo[b][1,4]dioxin-5-yl)-1-methyl-5-oxopyrrolidine-2-carboxamide]: the IC50 was in the range of 0.301 to 2 µM.

With `COc1ccc(Oc2ccc(F)c(F)c2)cc1NC(=O)C1CCC(=O)N1` (stereo not shown) [Compound 59, N-(5-(3,4-Difluorophenoxy)-2-methoxyphenyl)-5-oxopyrrolidine-2-carboxamide], the half-inhibitory concentration (IC50) is under 0.05 µM.

For the compound `COc1ccc(Oc2ccc(F)c(F)c2)cc1NC(=O)C1CCC(=O)N1C` (stereo not shown) [Compound 60, N-(5-(3,4-Difluorophenoxy)-2-methoxyphenyl)-1-methyl-5-oxopyrrolidine-2-carboxamide], the IC50 lay in the range of 0.05 to 0.3 µM.

On to `Cc1c(Oc2cccc(C(F)(F)F)c2)cc(NC(=O)C2CCC(=O)N2)c2c1OCCO2` (stereo not shown) [Compound 61, N-(8-Methyl-7-(3-(trifluoromethyl)phenoxy)-2,3-dihydrobenzo[b][1,4]dioxin-5-yl)-5-oxopyrrolidine-2-carboxamide], for which the IC50 lay in the range of 0.301 to 2 µM.

For `COc1ccc(Oc2ccc(C(F)(F)F)nc2)cc1NC(=O)C1CCC(=O)N1` (stereo not shown) [Compound 62, N-(2-Methoxy-5-((6-(trifluoromethyl)pyridin-3-yl)oxy)phenyl)-5-oxopyrrolidine-2-carboxamide], the IC50 was 0.05 to 0.3 µM.

As to `COc1ccc(Oc2ccc(C(F)(F)F)nc2)cc1NC(=O)C1CCC(=O)N1C` (stereo not shown) [Compound 63, N-(2-Methoxy-5-((6-(trifluoromethyl)pyridin-3-yl)oxy)phenyl)-1-methyl-5-oxopyrrolidine-2-carboxamide], the IC50 lay within 0.05 to 0.3 µM.

For the compound `COc1ccc(/C=C/C2CCOCC2)cc1NC(=O)C1CCC(=O)N1C` (stereo not shown) [Compound 64, (E)-N-(2-Methoxy-5-(2-(tetrahydro-2H-pyran-4-yl)vinyl)phenyl)-1-methyl-5-oxopyrrolidine-2-carboxamide], the half-maximal inhibitory concentration (IC50) is 0.301 to 2 µM.

Consider `COc1ccc(/C=C/C2CCOCC2)cc1NC(=O)C1CCC(=O)N1` (stereo not shown) [Compound 65, (E)-N-(2-Methoxy-5-(2-(tetrahydro-2H-pyran-4-yl)vinyl)phenyl)-5-oxo-pyrrolidine-2-carboxamide], for which the IC50 was 0.301 to 2 µM.

As for `O=C1CCC(C(=O)Nc2cc(Oc3ccc(C(F)(F)F)cc3)cc3c2OCCO3)N1` (stereo not shown) [Compound 66, 5-Oxo-N-(7-(4-(trifluoromethyl)phenoxy)-2,3-dihydrobenzo[b][1,4]dioxin-5-yl)pyrrolidine-2-carboxamide], the IC50 is under 0.05 µM.

As to `CN1C(=O)CCC1C(=O)Nc1cc(Oc2ccc(C(F)(F)F)cc2)cc2c1OCCO2` (stereo not shown) [Compound 67, 1-Methyl-5-oxo-N-(7-(4-(trifluoromethyl)phenoxy)-2,3-dihydrobenzo[b][1,4]-dioxin-5-yl)pyrrolidine-2-carboxamide], the IC50 was under 0.05 µM.

Turning to `CCN1C(=O)CCC1C(=O)Nc1cc(Oc2ccc(C(F)(F)F)cc2)ccc1OC` (stereo not shown) [Compound 68, 1-Ethyl-N-(2-methoxy-5-(4-(trifluoromethyl)phenoxy)phenyl)-5-oxopyrrolidine-2-carboxamide], the IC50 is under 0.05 µM.

`COc1ccc(Oc2ccc(C(F)(F)F)cc2)cc1NC(=O)[C@H]1CCC(=O)N1C` [Compound 69, (R)—N-(2-Methoxy-5-(4-(trifluoromethyl)phenoxy)phenyl)-1-methyl-5-oxo-pyrrolidine-2-carboxamide]: the IC50 is under 0.05 µM.
